The results in this text go back to article PMC5218480 (PLoS ONE, 2017).

For this assay, the system named is MV-4-11 cells. As to the kind of experiment: Gene expression microarray analysis (Affymetrix PrimeView) and GSEA. The assay is classed as cell-based, human. The arrangement: RFU PODN (11730768_x_at) / Fold change /veh PODN (11730768_x_at) / RFU LINC00158 (11744669_a_at) / Fold change /veh LINC00158 (11744669_a_at) / RFU DUSP10 (11751237_a_at) / Fold change /veh DUSP10 (11751237_a_at) / RFU ID3 (11757404_x_at) / Fold change /veh ID3 (11757404_x_at) / RFU PLEKHG5 (11737974_s_at) / Fold change /veh PLEKHG5 (11737974_s_at) / RFU LRRC4B (11730491_at) / Fold change /veh LRRC4B (11730491_at) / RFU GIMAP4 (11747438_a_at) / Fold change /veh GIMAP4 (11747438_a_at) / RFU KRT8 (11758183_x_at) / Fold change /veh KRT8 (11758183_x_at) / RFU CNN1 (11734310_a_at) / Fold change /veh CNN1 (11734310_a_at) / RFU VPS37D (11726825_at) / Fold change /veh VPS37D (11726825_at) / RFU C10orf10 (11716522_x_at) / Fold change /veh C10orf10 (11716522_x_at) / RFU KIR2DL2 /// KIR2DL4 /// KIR2DL5A /// KIR2DL5B /// KIR2DS1 /// KIR2DS2 /// KIR2DS3 /// KIR2DS4 /// KIR3DL3 /// KIR3DL3 /// KIR3DS1 (11738374_at) / Fold change /veh KIR2DL2 /// KIR2DL4 /// KIR2DL5A /// KIR2DL5B /// KIR2DS1 /// KIR2DS2 /// KIR2DS3 /// KIR2DS4 /// KIR3DL3 /// KIR3DL3 /// KIR3DS1 (11738374_at) / RFU C1QL1 (11718748_at) / Fold change /veh C1QL1 (11718748_at) / RFU TMPRSS4 (11747572_a_at) / Fold change /veh TMPRSS4 (11747572_a_at) / RFU HAMP (11756126_x_at) / Fold change /veh HAMP (11756126_x_at) / RFU RNFT2 (11725882_a_at) / Fold change /veh RNFT2 (11725882_a_at) / RFU NR4A2 (11747474_a_at) / Fold change /veh NR4A2 (11747474_a_at) / RFU ABCC12 (11746883_a_at) / Fold change /veh ABCC12 (11746883_a_at) / RFU TMEM136 (11760407_x_at) / Fold change /veh TMEM136 (11760407_x_at) / RFU CLDN22 /// WWC2 (11732394_at) / Fold change /veh CLDN22 /// WWC2 (11732394_at) / RFU HLA-DPB1 (11760878_x_at) / Fold change /veh HLA-DPB1 (11760878_x_at) / RFU SPINT1 (11716480_a_at) / Fold change /veh SPINT1 (11716480_a_at) / RFU GAP43 (11754022_s_at) / Fold change /veh GAP43 (11754022_s_at) / RFU A4GNT (11735810_at) / Fold change /veh A4GNT (11735810_at) / RFU PRB3 (11715151_x_at) / Fold change /veh PRB3 (11715151_x_at) / RFU TUBB4B (11761932_at) / Fold change /veh TUBB4B (11761932_at) / RFU CAPN14 (11732068_a_at) / Fold change /veh CAPN14 (11732068_a_at) / RFU TMCC2 (11721928_a_at) / Fold change /veh TMCC2 (11721928_a_at) / RFU IRGQ (11745062_a_at) / Fold change /veh IRGQ (11745062_a_at) / RFU FAM174B (11720279_a_at) / Fold change /veh FAM174B (11720279_a_at) / RFU TMPRSS4 (11748680_a_at) / Fold change /veh TMPRSS4 (11748680_a_at) / RFU FAM212B (11763350_a_at) / Fold change /veh FAM212B (11763350_a_at) / RFU PLEKHG5 (11743358_a_at) / Fold change /veh PLEKHG5 (11743358_a_at) / RFU ZSCAN30 (11745921_a_at) / Fold change /veh ZSCAN30 (11745921_a_at) / RFU CMKLR1 (11741424_a_at) / Fold change /veh CMKLR1 (11741424_a_at) / RFU LOC101060620 /// MAPK8IP1 (11723275_at) / Fold change /veh LOC101060620 /// MAPK8IP1 (11723275_at) / RFU SPTSSB (11747773_x_at) / Fold change /veh SPTSSB (11747773_x_at) / RFU PRSS12 (11739890_at) / Fold change /veh PRSS12 (11739890_at) / RFU BIN1 (11741810_x_at) / Fold change /veh BIN1 (11741810_x_at) / RFU WNT11 (11732464_a_at) / Fold change /veh WNT11 (11732464_a_at) / RFU C10orf10 (11716521_a_at) / Fold change /veh C10orf10 (11716521_a_at) / RFU C5orf56 (11738089_at) / Fold change /veh C5orf56 (11738089_at) / RFU CYB561 (11721691_x_at) / Fold change /veh CYB561 (11721691_x_at) / RFU ANKRD19P (11752326_a_at) / Fold change /veh ANKRD19P (11752326_a_at) / RFU OR2T12 /// OR2T33 /// OR2T8 (11738714_s_at) / Fold change /veh OR2T12 /// OR2T33 /// OR2T8 (11738714_s_at) / RFU VCAN (11748164_a_at) / Fold change /veh VCAN (11748164_a_at) / RFU JSRP1 (11732532_at) / Fold change /veh JSRP1 (11732532_at) / RFU KRTAP10-11 (11738290_x_at) / Fold change /veh KRTAP10-11 (11738290_x_at) / RFU MYO3A (11730013_a_at) / Fold change /veh MYO3A (11730013_a_at) / RFU EBF3 (11725865_a_at) / Fold change /veh EBF3 (11725865_a_at) / RFU CAMK2N1 (11719241_x_at) / Fold change /veh CAMK2N1 (11719241_x_at) / RFU C5orf56 (11738088_a_at) / Fold change /veh C5orf56 (11738088_a_at) / RFU OLFML3 (11715873_a_at) / Fold change /veh OLFML3 (11715873_a_at) / RFU LOC100653217 /// NTM (11731650_a_at) / Fold change /veh LOC100653217 /// NTM (11731650_a_at) / RFU MAPK11 (11762145_a_at) / Fold change /veh MAPK11 (11762145_a_at) / RFU FIZ1 (11724087_x_at) / Fold change /veh FIZ1 (11724087_x_at) / RFU OASL (11726364_x_at) / Fold change /veh OASL (11726364_x_at) / RFU SOX15 (11748057_x_at) / Fold change /veh SOX15 (11748057_x_at) / RFU CD79A (11719716_a_at) / Fold change /veh CD79A (11719716_a_at) / RFU HIST1H1D (11736915_at) / Fold change /veh HIST1H1D (11736915_at) / RFU CASKIN2 (11723855_a_at) / Fold change /veh CASKIN2 (11723855_a_at) / RFU LOC730098 (11760151_x_at) / Fold change /veh LOC730098 (11760151_x_at) / RFU OR4N2 (11742367_at) / Fold change /veh OR4N2 (11742367_at) / RFU PRRT2 (11749266_a_at) / Fold change /veh PRRT2 (11749266_a_at) / RFU SNX32 (11753110_a_at) / Fold change /veh SNX32 (11753110_a_at) / RFU CDHR5 (11726645_a_at) / Fold change /veh CDHR5 (11726645_a_at) / RFU RCAN1 (11760418_a_at) / Fold change /veh RCAN1 (11760418_a_at) / RFU FAM167A (11723789_a_at) / Fold change /veh FAM167A (11723789_a_at) / RFU FAM26E (11764081_at) / Fold change /veh FAM26E (11764081_at) / RFU ISYNA1 (11749810_s_at) / Fold change /veh ISYNA1 (11749810_s_at) / RFU ACY1 (11761880_at) / Fold change /veh ACY1 (11761880_at) / RFU 11764098_at / Fold change /veh 11764098_at / RFU SAMD14 (11745864_x_at) / Fold change /veh SAMD14 (11745864_x_at) / RFU NPB (11741838_a_at) / Fold change /veh NPB (11741838_a_at) / RFU TMPRSS6 (11731388_a_at) / Fold change /veh TMPRSS6 (11731388_a_at) / RFU KRTAP10-2 (11738614_at) / Fold change /veh KRTAP10-2 (11738614_at) / RFU ARHGAP8 /// PRR5-ARHGAP8 (11727945_x_at) / Fold change /veh ARHGAP8 /// PRR5-ARHGAP8 (11727945_x_at) / RFU KRTAP5-7 /// NADSYN1 (11734609_at) / Fold change /veh KRTAP5-7 /// NADSYN1 (11734609_at) / RFU RASL12 (11751679_a_at) / Fold change /veh RASL12 (11751679_a_at) / RFU CDKN2B (11736163_a_at) / Fold change /veh CDKN2B (11736163_a_at) / RFU PRF1 (11729649_at) / Fold change /veh PRF1 (11729649_at) / RFU, ZNF638 /// ZNF638-IT1 / Fold change vs veh, ZNF638 /// ZNF638-IT1 / RFU, PANK3 / Fold change vs veh, PANK3 / RFU, SH3YL1 / Fold change vs veh, SH3YL1 / RFU, ZEB2 / Fold change vs veh, ZEB2 / RFU, NRIP1 / Fold change vs veh, NRIP1 / RFU, PTTG1IP / Fold change vs veh, PTTG1IP / RFU, CAPN2 / Fold change vs veh, CAPN2 / RFU, MED14 / Fold change vs veh, MED14 / RFU, SNORA58 / Fold change vs veh, SNORA58 / RFU, C1orf63 / Fold change vs veh, C1orf63 / RFU, LRRFIP1 / Fold change vs veh, LRRFIP1 / RFU, NDUFAF7 / Fold change vs veh, NDUFAF7 / RFU, SLC12A2 / Fold change vs veh, SLC12A2 / RFU, IBTK / Fold change vs veh, IBTK / RFU, ESF1 / Fold change vs veh, ESF1 / Fold change vs veh, TMEM50B / RFU, TAOK1 / Fold change vs veh, TAOK1 / RFU, ACBD3 / Fold change vs veh, ACBD3 / RFU, TMA16 / Fold change vs veh, TMA16 / RFU, RWDD3 / Fold change vs veh, RWDD3 / RFU, BCAT1 / Fold change vs veh, BCAT1 / RFU, EDEM3 / Fold change vs veh, EDEM3 / RFU, TMEM33 / Fold change vs veh, TMEM33 / RFU, WDR75 / Fold change vs veh, WDR75 / RFU, AHCTF1 / Fold change vs veh, AHCTF1 / RFU, TFRC / Fold change vs veh, TFRC / RFU, ZDHHC17 / Fold change vs veh, ZDHHC17 / RFU, NOM1 / Fold change vs veh, NOM1 / RFU, ARL8B / Fold change vs veh, ARL8B / RFU, ZBTB11 / Fold change vs veh, ZBTB11 / RFU, TAMM41 / Fold change vs veh, TAMM41 / RFU, KIAA1704 /// LOC100996395 / Fold change vs veh, KIAA1704 /// LOC100996395 / RFU, ING1 / Fold change vs veh, ING1 / RFU, TRMT61B / Fold change vs veh, TRMT61B / RFU, FUBP3 / Fold change vs veh, FUBP3 / RFU, TP53 / Fold change vs veh, TP53 / RFU, TNKS2 / Fold change vs veh, TNKS2 / RFU, ZFP14 / Fold change vs veh, ZFP14 / RFU, ACTR2 / Fold change vs veh, ACTR2 / RFU, PPP3R1 / Fold change vs veh, PPP3R1 / RFU, PIK3R1 / Fold change vs veh, PIK3R1 / RFU, HNRNPA1 / Fold change vs veh, HNRNPA1 / RFU, RNF170 / Fold change vs veh, RNF170 / RFU, ZNF28 / Fold change vs veh, ZNF28 / RFU, RNGTT / Fold change vs veh, RNGTT / RFU, OGT / Fold change vs veh, OGT / RFU, BRD1 / Fold change vs veh, BRD1 / RFU, MARS / Fold change vs veh, MARS / RFU, ZNF655 / Fold change vs veh, ZNF655 / RFU, FAHD1 / Fold change vs veh, FAHD1 / RFU, BDP1 / Fold change vs veh, BDP1 / RFU, LRRCC1 / Fold change vs veh, LRRCC1 / RFU, ARID1A / Fold change vs veh, ARID1A / RFU, ZNF146 / Fold change vs veh, ZNF146 / RFU, ZNF330 / Fold change vs veh, ZNF330 / RFU, GPN3 / Fold change vs veh, GPN3 / RFU, C9orf123 / Fold change vs veh, C9orf123 / RFU, N4BP2L2 / Fold change vs veh, N4BP2L2 / RFU, ARFIP1 / Fold change vs veh, ARFIP1 / RFU, FAM179B / Fold change vs veh, FAM179B / RFU, BCL10 / Fold change vs veh, BCL10 / RFU, UHRF1BP1L / Fold change vs veh, UHRF1BP1L / RFU, BET1 / Fold change vs veh, BET1 / RFU, CNOT2 / Fold change vs veh, CNOT2 / RFU, ZNF268 / Fold change vs veh, ZNF268 / Fold change vs veh, ZNF507 / RFU, DGCR2 / Fold change vs veh, DGCR2 / RFU, WDSUB1 / Fold change vs veh, WDSUB1 / Fold change vs veh, HSP90B1 /// MIR3652 / RFU, ADSS / Fold change vs veh, ADSS / RFU, GK / Fold change vs veh, GK / RFU, ZNF148 / Fold change vs veh, ZNF148 / RFU, TAF9 / Fold change vs veh, TAF9 / RFU, SLC1A5 / Fold change vs veh, SLC1A5 / RFU, SLMO2 / Fold change vs veh, SLMO2 / RFU, ABCC4 / Fold change vs veh, ABCC4 / RFU, LOC101060439 /// RAP1B / Fold change vs veh, LOC101060439 /// RAP1B / RFU, RFX7 / Fold change vs veh, RFX7 / RFU, GTPBP10 / Fold change vs veh, GTPBP10 / RFU, CNEP1R1 / Fold change vs veh, CNEP1R1 / RFU, BIVM-ERCC5 /// ERCC5 / Fold change vs veh, BIVM-ERCC5 /// ERCC5 / RFU, ILF3 / Fold change vs veh, ILF3 / RFU 11762660_at / Fold change /veh 11762660_at / RFU VCAN (11757783_s_at) / Fold change /veh VCAN (11757783_s_at) / RFU DDX43 (11728927_at) / Fold change /veh DDX43 (11728927_at) / RFU KRT8 (11758188_x_at) / Fold change /veh KRT8 (11758188_x_at) / RFU NKD1 (11759106_at) / Fold change /veh NKD1 (11759106_at) / RFU SRD5A1 (11742802_a_at) / Fold change /veh SRD5A1 (11742802_a_at) / RFU TPSAB1 /// TPSB2 (11721975_s_at) / Fold change /veh TPSAB1 /// TPSB2 (11721975_s_at) / RFU GSTM3 (11746129_a_at) / Fold change /veh GSTM3 (11746129_a_at) / RFU IL23R (11737362_x_at) / Fold change /veh IL23R (11737362_x_at) / RFU TMEM51 (11727254_a_at) / Fold change /veh TMEM51 (11727254_a_at) / RFU PIWIL2 (11732686_x_at) / Fold change /veh PIWIL2 (11732686_x_at) / RFU ORM1 (11744905_x_at) / Fold change /veh ORM1 (11744905_x_at) / RFU CCDC152 (11743942_at) / Fold change /veh CCDC152 (11743942_at) / RFU ECM1 (11717891_a_at) / Fold change /veh ECM1 (11717891_a_at) / RFU IL23R (11748794_a_at) / Fold change /veh IL23R (11748794_a_at) / RFU TNFAIP8L3 (11732012_x_at) / Fold change /veh TNFAIP8L3 (11732012_x_at) / RFU MBOAT4 (11741988_at) / Fold change /veh MBOAT4 (11741988_at) / RFU 11764193_at / Fold change /veh 11764193_at / RFU TMEM53 (11763286_at) / Fold change /veh TMEM53 (11763286_at) / RFU MAGEB2 (11727129_at) / Fold change /veh MAGEB2 (11727129_at) / RFU TMEM200A (11744735_a_at) / Fold change /veh TMEM200A (11744735_a_at) / RFU CCDC152 (11751479_a_at) / Fold change /veh CCDC152 (11751479_a_at) / RFU FAM211A (11726209_a_at) / Fold change /veh FAM211A (11726209_a_at) / RFU RGS16 (11746705_a_at) / Fold change /veh RGS16 (11746705_a_at) / RFU VCAN (11755009_s_at) / Fold change /veh VCAN (11755009_s_at) / RFU RHOB (11743442_s_at) / Fold change /veh RHOB (11743442_s_at) / RFU RGS16 (11720943_a_at) / Fold change /veh RGS16 (11720943_a_at) / RFU RGS16 (11720944_at) / Fold change /veh RGS16 (11720944_at) / RFU, VPS4B / Fold change vs veh, VPS4B / RFU, CREB1 / Fold change vs veh, CREB1 / RFU, DNAJC13 / Fold change vs veh, DNAJC13 / RFU, GNAQ / Fold change vs veh, GNAQ / RFU, CDK5R1 / Fold change vs veh, CDK5R1 / RFU, ZRANB3 / Fold change vs veh, ZRANB3 / RFU, CUL4A / Fold change vs veh, CUL4A / RFU, CCNY / Fold change vs veh, CCNY / RFU, UFL1 / Fold change vs veh, UFL1 / RFU, COG3 / Fold change vs veh, COG3 / RFU, DIAPH2 / Fold change vs veh, DIAPH2 / RFU, SKA2 / Fold change vs veh, SKA2 / RFU, AFF3 / Fold change vs veh, AFF3 / RFU, LMF1 / Fold change vs veh, LMF1 / RFU, IPO11 / Fold change vs veh, IPO11 / RFU, DFFB / Fold change vs veh, DFFB / RFU, FOXP1 / Fold change vs veh, FOXP1 / RFU, CARD8 / Fold change vs veh, CARD8 / RFU, STRN3 / Fold change vs veh, STRN3 / RFU, ADK / Fold change vs veh, ADK / RFU, RASSF2 / Fold change vs veh, RASSF2 / RFU, WIPF1 / Fold change vs veh, WIPF1 / RFU, LARP1B / Fold change vs veh, LARP1B / RFU, RASA1 / Fold change vs veh, RASA1 / RFU, RB1 / Fold change vs veh, RB1 / RFU, PPFIA1 / Fold change vs veh, PPFIA1 / RFU, MAT2A / Fold change vs veh, MAT2A / RFU, CCT5 / Fold change vs veh, CCT5 / RFU, WDR92 / Fold change vs veh, WDR92 / RFU, CUX1 / Fold change vs veh, CUX1 / RFU, TTC7A / Fold change vs veh, TTC7A / RFU, TMEM135 / Fold change vs veh, TMEM135 / RFU, DEPTOR / Fold change vs veh, DEPTOR / RFU, CPM / Fold change vs veh, CPM / RFU, DNAJB6 / Fold change vs veh, DNAJB6 / RFU, CACNA2D3 / Fold change vs veh, CACNA2D3 / RFU, DTX4 / Fold change vs veh, DTX4 / RFU, TFCP2 / Fold change vs veh, TFCP2 / RFU, GMCL1 /// GMCL1P1 / Fold change vs veh, GMCL1 /// GMCL1P1 / RFU, AEBP2 / Fold change vs veh, AEBP2 / RFU, SNHG1 /// SNORD22 /// SNORD25 /// SNORD26 /// SNORD27 /// SNORD28 /// SNORD29 /// SNORD31 / Fold change vs veh, SNHG1 /// SNORD22 /// SNORD25 /// SNORD26 /// SNORD27 /// SNORD28 /// SNORD29 /// SNORD31 / Fold change (Aza/veh), C12orf56 (ProbeSet 11735607_a_at) / Fold change (ACY-1035/veh), C12orf56 (ProbeSet 11735607_a_at) / Fold change (Aza/veh), FGFR1OP (ProbeSet 11751329_s_at) / Fold change (ACY-1035/veh), FGFR1OP (ProbeSet 11751329_s_at) / Fold change (Aza/veh), VPS36 (ProbeSet 11739960_a_at) / Fold change (ACY-1035/veh), VPS36 (ProbeSet 11739960_a_at) / RFU SYPL1 (11715823_x_at) / Fold change /veh SYPL1 (11715823_x_at) / RFU IGFBP7 (11715501_s_at) / Fold change /veh IGFBP7 (11715501_s_at) / RFU REEP3 (11722064_at) / Fold change /veh REEP3 (11722064_at) / RFU IGLL1 (11728026_x_at) / Fold change /veh IGLL1 (11728026_x_at): dose or concentration left out as unconfirmed. Particulars: ProbeSet 11758440_s_at; LIST B.

Molecules are shown by their SMILES.

On to `Nc1ccc(-c2cccs2)cc1NC(=O)c1ccc2c(c1)cc(C1CC1)n2CCN1CCOCC1` [ACY-1035], for which the “Fold change vs veh, RFX7” value is 0.90.
